Laboratory results published in patent US12576155B2, “Senolytic and antiinflammatory prodrugs and methods of use thereof” (priority 2019, dated 2026).

Assays:
p38 MAPK = assay: Western blotting of phos-p38 MAPK in senescent cells; assay type: cell-based, mouse; conditions: 0.5 μM SSK1, after 36 hours of treatment
Procedure: Senescent NBF cells were plated and incubated overnight at 37° C. The cells were treated with 0.05 μM gemcitabine or 0.5 μM SSK1 prodrug for the indicated time. Before harvest, cells were washed twice with pre-cooled PBS buffer. Total protein was extracted with lysis buffer (50 mM Tris-HCl (pH 7.5), 137 mM sodium chloride, 1 mM EDTA, 1% Nonidet P-40, 10% glycerol, 0.1 mM sodium orthovanadate, 10 mM sodium pyrophosphate, 20 mM β-glycerophosphate, 50 mM sodium fluoride, 1 mM phenylmethylsulfonyl fluoride), and the protein concentrations were normalized using the BCA Protein Assay Kit (Pierce). Protein samples were mixed with protein loading buffer and incubated at 95° C. for 5 min. Western blotting was performed by using the following antibodies: phospho-specific p38 MAPK (Thr180/Tyr182) (Cell Signaling Technology, CST, catalog number 4511) and p38 (CST, catalog number 8690); phospho-histone H2A.X (Ser139) (CST, catalog number 9718) and histone H2A.X (CST, catalog number 7631). The β-tubulin protein level was also determined as the loading control by using the β-tubulin antibody (CST, catalog number 2128).

[1] = test system: SA-β-gal-positive senescent cells in bleomycin-injured lungs; assay: Bleomycin-induced lung injury (lung fibrosis and senescence) mouse model; assay type: in vivo, mice
Procedure: All drugs were mixed in 90% PBS, 5% Tween-80 (P1754, Sigma), and 5% polyethylene glycol (PEG) (81172, Sigma) and administered to mice by intraperitoneal (i.p.) injection. For treating bleomycin-injured young mice, SSK1 (0.5 mg/kg) or vehicle were given consecutive two days every week for five weeks. For old mice (20-month-old), SSK1 (0.5 mg/kg), gemcitabine (0.5 mg/kg) or vehicle were administrated for continued 3 days every two weeks. Gemcitabine was purchased from MCE.
Bleomycin was purchased from Selleck. To induce lung senescence and fibrosis, young male and female mice (3-month-old) were subjected to transtracheal injection of bleomycin (1 mg/kg) as previously reported (Bivas-Benita et al., Eur J Pharm Biopharm 61, 214-218(2005))
Cultured cells were washed once with PBS and fixed in β-galactosidase staining fix solution for 15 min at room temperature. Cells were then washed three times with PBS and incubated with β-galactosidase staining solution (Beyotime Biotechnology) for 16-20 hours at 37° C. For 12-well plates, 1 ml of β-galactosidase staining solution was added to each well. The plate was sealed with Parafilm to prevent evaporation of the staining medium. After the overnight incubation, cells were washed with PBS and observed under a bright field microscope. For β-galactosidase staining of frozen sections, the frozen sections were dried at 37° C. for 20-30 min and then fixed in β-galactosidase staining fix solution for 15 min at room temperature. The frozen sections were washed three times with PBS and incubated with β-galactosidase staining solution overnight at 37° C. After completion of β-galactosidase staining, the sections were stained with eosin for 1-2 min, rinsed under running water for 1 min, differentiated in 1% acid alcohol for 10-20 sec, and washed again under running water for 1 min. Sections were dehydrated in increasing concentrations of alcohols and cleared in xylene. Excess xylene was drained and a coverslip was placed over the section. After drying, the sample was observed under a microscope.
Lung, liver, and kidney frozen sections stained with SA-β-Gal were quantified by ImageJ software (NIH) to measure the SA-β-Gal positive area. The total area was quantified by eosin positive area with ImageJ software (NIH). The relative positive SA-β-Gal positive cells were calculated with the SA-β-Gal positive area divided by the total area. Each mouse was measured with 3-5 regions.
For detecting the p21 expression in lungs, we conducted the immunohistochemical staining experiment for p21 with an immunohistochemical staining kit (SP-9000, ZSGB-BIO). Freshly isolated tissues were fixed by 10% formalin for one day and then transferred in 20% formalin for another day. The tissue blocks were then dehydrated and embedded in paraffin. The embedded tissues were cut and affixed on slides. Before immunohistochemical staining, the slides were deparaffinized, rehydrated, and performed antigen retrieve by high pressure and high temperature in Tris/EDTA pH 8.0 buffer solution. Immunohistochemical staining was conducted according to the manufacturers' instructions.
Total RNA was isolated using the Direct-zol RNA MiniPrep Kit (Zymo Research, R2072). […] Data were analyzed using the 2^(−ΔΔCt) method. […]

[2] = test system: senescent human umbilical vein endothelial cells (HUVECs); assay: Cell viability, senescent and non-senescent HUVECs; assay type: cell-based; conditions: replication-induced senescent vs non-senescent HUVECs; increasing doses
Description: For replication-induced senescence, cells were passaged until they lost the ability to proliferate and became senescent. NBFs were used as senescent cells after approximately 8-9 passages or 12 population doublings. HEFs were used after approximately 35 passages or 50 population doublings. HUVECs were senescent after approximately 18 passages or 24 population doublings.
To test the viability of senescent and non-senescent cells treated with SSK1, cells were stained with a mixture of Hoechst 33342 and propidium iodide (PI) (CA1120, Solarbio) to distinguish living and dead cells. After treatment with the small molecules, the cell culture medium was removed, and the cells were washed once with PBS. Then, the cells were stained according to the manufacturer's protocol, where the final concentrations of Hoechst 33342 and PI were 5 μg/ml and 2 μg/ml in PBS buffer. The plate was incubated at 4° C. for 30 min and observed on a fluorescence microscope or automatic cell imaging system. Viable cells were quantified using a MD Image Xpress Micro XL (Molecular Devices).

CC(=O)OCC1O[C@@H](Oc2ccc(COC(=O)Nc3ccn([C@@H]4O[C@H](CO)C(O)C4(F)F)c(=O)n3)cc2[N+](=O)[O-])C(OC(C)=O)C(OC(C)=O)[C@H]1OC(C)=O (stereo partly shown) [SSK1] was tested, and the “State of p38 MAPK (phosphorylation)” value (p38 MAPK) was “activated p38 MAPK by phosphorylation”, the “Decline in physical functions (treadmill exhaustion distance)” value ([1]; SSK1 0.5 mg/kg i.p.) was “attenuated” and the Lung fibrosis ([1]; SSK1 0.5 mg/kg i.p.) was “attenuated”. For the same molecule, the “p21-positive cells and other senescence-associated markers in lungs (immunohistochemistry, RT-qPCR)” value ([1]; SSK1 0.5 mg/kg i.p.) was “decreased p21-positive cells and other senescence-associated markers”, the “Decrease of SA-β-gal-positive cells in lungs vs vehicle” value ([1]; SSK1 0.5 mg/kg i.p., five weeks) was 3.8 fold and the “β-gal positive macrophages in injured lungs” value ([1]; SSK1 0.5 mg/kg, xCell analysis of RNA-seq, FIG. 6C) was “reduction of β-gal positive macrophages was observed”. The “Selective killing of senescent cells (viability)” value [2] was “selectively killed by SSK1”.
